Experiments:
[1] = DPPH antioxidant (free radical scavenging) assay; assay type: biochemical; conditions: duplicate, 5 concentrations, read at 517 nm; read-out: IC50 (DPPH assay, anti-oxidant activity)
Experimental: NWD-19, NWD-15, and NWD-14 were evaluated for antioxidant activity using the 2,2-diphenyl-1-picrylhydrazyl (DPPH) assay. The DPPH assay was used to predict antioxidant activities by mechanism in which antioxidants act to inhibit lipid oxidation, so scavenging of DPPH radical and therefore determinate free radical scavenging capacity. The DPPH antioxidant assay kit (Dokindo Molecular Technologies, Inc.) was used, and the plates were read at 517 nm on the BioTek Synergy HT plate reader (Gen5 software). All compounds were tested in duplicate at 5 concentrations to determine the anti-oxidant activity of each compound.

[2] = system: Primary retinal pigment endothelial cell line (RPE); test: Protection from AAPH induced oxidative stress in RPE cells (viability, cell titer glo 2.0); assay type: cell-based; conditions: 1.25 μM NWD-19 pre-treatment overnight, AAPH 10 mM overnight
Experimental: Primary retinal pigment endothelial cell line (RPE) were plated in appropriate growth medium in a 96 well plate overnight (16-24 hrs). Once 80-90% confluence was achieved the cells were then treated with NWD-19 at a concentration range of 0.039 uM to 1.25 μM. Appropriate blanks were also added and the plate was incubated overnight in a CO2 (95%)/O2 (5%) incubator at 37° C. temperature. Following incubation all wells were treated with AAPH at 10 mM to induce oxidative stress and incubated overnight. After incubation the plate was assayed for viability using cell titer glo 2.0 assay (Promega).

RPE primary cells = test: TBARS assay in RPE primary cells after AAPH induced oxidative stress; assay type: cell-based; conditions: AAPH 10 mM, activity up to 0.078 μM concentration
Experimental: Primary retinal pigment endothelial cell line (RPE) were plated in appropriate growth medium in a 96 well plate overnight (16-24 hrs). Cells were then treated with NWD-19 at 7 concentrations and incubated overnight. Following incubation all wells were treated with AAPH at 10 mM to induce oxidative stress and incubated overnight. The TBARS assay was then utilized to evaluate the anti-oxidant potential of the compound in the RPE cells at various concentrations.

[3] = system: Benzalkonium chloride induced dry eyes; test: Benzalkonium chloride induced dry eyes in C57BL/6 mice; assay type: in vivo; conditions: daily topical drops 10 μM from day 8 to day 21 of 0.2% BAC treatment
Experimental: Benzalkonium chloride (BAC) is a commonly used preservative in ophthalmic solutions. However, it has been reported to increase the risk of dry eye disease due to its toxicity on the ocular surface, the conjunctiva, the cornea and even deeper ocular structures. 5 uL 0.2% BAC in mice eyes has been reported to cause dry eye symptoms without affecting aqueous tear production, inflammation, or corneal smoothness (Richard Zhang, et al. Dose-dependent benzalkonium chloride toxicity imparts ocular surface epithelial changes with features of dry eye disease, The Ocular Surface, Volume 18, Issue 1, 2020, Pages 158-169).
Symptoms of dry eye disease were induced in 24 male and female C57/BL6 mice for 21 days using 0.2% daily eye drops of BAC. Daily topical application of NWD-19 at 10 μM concentration started at day 8 post BAC treatment and continued until day 21, whereas the control mice eyes were treated with PBS during this period. […] At pre-dose and subsequently on days 7, 14 and 21 post dose the mice eyes were examined by a veterinary ophthalmologist for corneal lesions and dry eye was also evaluated using a drop of 0.1% fluorescein solution in each treated eye and observation and scoring using a cobalt blue filter. […]

CT-26 cells = test: Cytotoxicity in CT-26 cancer cell line (cell titer glo 2.0); assay type: cell-based; conditions: Mus musculus, CT26; overnight incubation, triplicate, 6 concentrations; read-out: EC50 (percent survival, CT-26 cells)
Experimental: The CT-26 cell lines were plated at the appropriate pre-determined plating density in the 96 well plate and allowed to attach for about 16 hrs. After a suitable confluence was ensured (about 70-80%) the media was replaced with fresh media and the test compound was added to the plate in triplicate at 6 concentrations. Appropriate vehicle and positive controls were also added, and the plate was incubated overnight in a CO2 (95%)/O2 (5%) incubator at 37° C. temperature. After incubation the plate was assayed for cytotoxicity using cell titer glo 2.0 assay (Promega) on the BioTek Synergy HT plate reader (Gen5 software).

IC50 [1] [nM]	SMILES	cell survival after AAPH induced oxidative stress [2] [%]	anti-oxidant activity in TBARS assay (malonaldehyde equivalents) (RPE primary cells)	condition of the eyes (corneal lesions, dry eye fluorescein scoring) compared to vehicle control eyes [3]	EC50 (CT-26 cells) [nM]
2300	CC1=NN(c2ccccc2)C(=O)C1CCCC[P+](c1ccccc1)(c1ccccc1)c1ccccc1 (stereo not shown) [NWD-15, (4-(3-methyl-5-oxo-1-phenyl-4,5-dihydro-1H-2l4-pyrazol-4-yl)butyl) triphenyl-phosphonium bromide]	–	–	–	–
2800	O=c1cc(CCCC[P+](c2ccccc2)(c2ccccc2)c2ccccc2)[nH]n1-c1ccccc1 [NWD-14, (4-(5-oxo-1-phenyl-2,5-dihydro-1H-pyrazol-3-yl)butyl) triphenyl phosphonium bromide]	–	–	–	–
2100	CC1=NN(c2ccccc2)C(=O)C1CCCCCCCCCC[P+](c1ccccc1)(c1ccccc1)c1ccccc1.[Br-] (stereo not shown) [NWD-19, (10-(3-methyl-5-oxo-1-phenyl-4,5-dihydro-1H-pyrazol-4-yl)decyl) triphenyl phosphonium bromide]	~50	significant anti-oxidant activity	masked improvement	9600
